Assays:
[1] = system: Caspase 3/7 activity in A549 cells; experiment: Apoptosis and caspase 3/7 activity (CaspaseGlo 3/7 luminescence); type: cell-based, human; conditions: for Increase in caspase 3/7 activity: A549, 10 μM
Method: Compound 7e was analyzed for apoptosis inducing activity in cancer cells. These studies were carried out using cells derived from human lung (A549).
Fig 4 A-549 human lung cancer cells were treated with 3.3 and 10 μM 7e over a time course from 2–48 h. Caspase 3/7 activity was measured by a luminescence-based homogenous assay.
A549 cells were harvested from a 90% confluent 10 cm dish and diluted in growth medium. An appropriate concentration of cells were prepared to add 1,250 cells in a volume of 25 µL per well in tissue culture treated Corning 384-well microplates, then incubated overnight at 37°C. A single cluster of four wells containing no cells was included to serve as a background (no cell) control. Compound 7e was diluted in DMSO to concentrations […].
Concentrated dosing solutions of twice the final concentration were prepared by dilution of the DMSO stocks 1:500 in growth media. Three-fold dilutions of each dosing medium was then prepared in medium containing 0.2% DMSO to maintain a constant concentration of vehicle throughout the concentration range of the compound. Each of these was added in equal volume (25 µL) to four wells on each cell assay plate, along with the vehicle control. Cells were incubated with the compounds for a further 48 h. After 24 h, a separate group of cells was treated identically for 24 h. Likewise, groups of cells were treated for durations of 16, 8, 4 and 2 h.
(§1) At the end of the treatment period, assay plates were allowed to cool to RT for 10 min prior to addition of 25 µL per well Promega CaspaseGlo 3/7 reagent, followed by an additional 10 min incubation at RT. The resulting luminescence was quantitated using a Molecular Devices Spectramax Paradigm.
The average mean value of the background “no cell” control sample wells were subtracted from all vehicle and test compound wells.Fold-change in caspase activity was then calculated by dividing the mean sample value for each treatment time point by the mean vehicle value for the corresponding time.

IEC-6 = experiment: Selectivity: growth inhibition in non-tumorigenic cell line; type: cell-based; conditions: Rattus norvegicus, 72 h, maximum 25 μM, read-out: IC50 Intestine IEC-6
Method: This assessment of the growth inhibitory activity of the compounds was tested in quadruplicate at a maximum concentration of 25 μM, followed by 10 serially diluted concentrations.
A549, IEC-6, MCF-10A and 3t3 cells were harvested from 90-95% confluent cultures in 10 cm dishes, and diluted in growth media recommended by the suppliers as follows: A549 cells were cultured in RPMI-1640 medium supplemented with 5% fetal bovine serum (FBS). IEC-6 cells were obtained from ATCC and cultured in Dulbecco’s modified Eagle’s medium (DMEM) supplemented with 10% FBS and 0.1 unit/mL recombinant insulin. Swiss 3t3 cells were obtained from ATCC and cultured in DMEM supplemented with 10% FBS. […]
as §1, with “CellTiterGlo” for “CaspaseGlo 3/7”, “Paradigm.Percent growth inhibition was calculated using equation (1). The potency of compounds was determined using the non-linear dose response algorithm (four-parameter logistic fit) with GraphPad Prism 5 software.” for “Paradigm.”

A549 = experiment: Cell viability assay of free 7e and 7e-loaded microspheres; type: cell-based, human
Method: Cell viability assay: The cell viability assay was performed as described in the section of anti-proliferative activity in the supplementary materials.
The human lung cancer A549 cell line was incubated with various concentrations (0.8, 1.6, 3.13, 6.25, 12.5, 25 and 50 μM) of both free 7e and 7e-loaded microspheres to evaluate the anti-proliferative activity by assessing their effect on cell viability.
A549, HT-29, ZR-75 were obtained from the American Type Culture Collection (ATCC). Cells were harvested from 90-95% confluent 10 cm dishes, and diluted in growth media (RPMI-1640 supplemented with 5% fetal bovine serum). An appropriate concentration of cells were prepared to add 1,250 cells in a volume of 25 µL per well in tissue culture treated Griener 384-well microplates, then incubated overnight at 37°C. Compound 7e was diluted to a concentration of 30 µM in DMSO. Concentrated dosing solutions of twice the final concentration were prepared by dilution of the DMSO stocks 1:500 in growth media. Two-fold serial dilutions were then prepared in medium containing 0.2% DMSO to maintain a constant concentration of vehicle throughout the concentration range of the compound. Each of these was added in an equal volume (25 µL) to four wells on each cell assay plate, along with the vehicle control. The highest concentration for serial dilutions of the positive control (sunitinib) was prepared exactly as the experimental compound 7e. […]
At the end of the treatment period, assay plates were allowed to cool to RT for 10 min prior to the addition of 25 µL per well Promega CellTiterGlo reagent, followed by additional 10 min incubation at RT. The resulting luminescence was quantitated using a Molecular Devices Spectramax Paradigm.

SMILES | Increase in caspase 3/7 activity ([1]; 4 h) | Increase in caspase 3/7 activity ([1]; 8 h) | Effect on caspase 3/7 activity ([1]; A549, lower tested concentration (3.3 μM)) | IC50 (IEC-6) | melting point | Reduction in cell viability (A549; A549, 0.8 μM, 24 h) | Reduction in cell viability (A549; A549, 1.6 μM, 24 h) | Reduction in cell viability (A549; A549, 1.6 μM, 72 h) | Reduction in cell viability (A549; A549, 3.1 μM, 72 h) | Reduction in cell viability (A549; A549, 3.1 μM, 120 h) | Reduction in cell viability (A549; A549, 3.13 μM, 24 h) | Reduction in cell viability (A549; A549, 6.25 μM, 24 h) | IC50 (A549; Homo sapiens, A549, 24 h of incubation, read-out: IC50 toward A549 cells)
O=C1Nc2ccc(Br)cc2C1=NN=C1C(=O)N(Cc2ccccc2)c2ccccc21 [Compound 7e, 1-Benzyl-3-((5-bromo-2-oxoindolin-3-ylidene)hydrazono)indolin-2-one] | 2.4 fold | 1.85 fold | no effect | 3.72 µM | 265 to 267 °C | no cytotoxicity | no cytotoxicity | 30% | 70% | almost total inhibition | 20% | remarkable reduction | 6.51 µM
CCN(CC)CCNC(=O)c1c(C)[nH]c(/C=C2\C(=O)Nc3ccc(F)cc32)c1C [Sunitinib, sunitinib, reference compound] |  |  |  | 4.56 µM |  |  |  |  |  |  |  |  | 
